From PubChem BioAssay AID1259407 (Chemical Carcinogenesis Research Information System (CCRIS), 2018) come the findings set out here.

The series has as its system CCRIS mutagenicity, Ames/micronucleus/aberration tests. The series is described as follows: CCRIS mutagenicity studies.
Where [1] appears, read: Test System: AMES SALMONELLA TYPHIMURIUM, Strain/Indicator: TA98, Metabolic Activation: NONE, Method: STANDARD PLATE.
Setting [2] is: Test System: AMES SALMONELLA TYPHIMURIUM, Strain/Indicator: TA98, Metabolic Activation: RAT, LIVER, S-9, AROCLOR 1254, Method: STANDARD PLATE.
[3] abbreviates: Test System: AMES SALMONELLA TYPHIMURIUM, Strain/Indicator: TA100, Metabolic Activation: RAT, LIVER, S-9, AROCLOR 1254, Method: STANDARD PLATE.
[4] abbreviates: Test System: AMES SALMONELLA TYPHIMURIUM, Strain/Indicator: TA1535, Metabolic Activation: NONE, Method: STANDARD PLATE.
Setting [5] is: Test System: AMES SALMONELLA TYPHIMURIUM, Strain/Indicator: TA1535, Metabolic Activation: RAT, LIVER, S-9, AROCLOR 1254, Method: STANDARD PLATE.
The mark [6] stands for this setting: Test System: AMES SALMONELLA TYPHIMURIUM, Strain/Indicator: TA1537, Metabolic Activation: NONE, Method: STANDARD PLATE.
The mark [7] stands for this setting: Test System: AMES SALMONELLA TYPHIMURIUM, Strain/Indicator: TA1537, Metabolic Activation: RAT, LIVER, S-9, AROCLOR 1254, Method: STANDARD PLATE.
Setting [8] is: Test System: AMES SALMONELLA TYPHIMURIUM, Strain/Indicator: TA100, Metabolic Activation: NONE, Method: STANDARD PLATE.
[9] abbreviates: Test System: AMES SALMONELLA TYPHIMURIUM, Strain/Indicator: TA98, Metabolic Activation: NONE, Method: PREINCUBATION
The mark [10] stands for this setting: Test System: AMES SALMONELLA TYPHIMURIUM, Strain/Indicator: TA100, Metabolic Activation: NONE, Method: PREINCUBATION

The source made the active and inactive calls. No rule for the calls is given here.

Take `C=CCC1=C(C)C(OC(=O)[C@@H]2[C@@H](C=C(C)C)C2(C)C)CC1=O` (some centres not stated): the mutagenic call was “active; positive” (Test System: AMES SALMONELLA TYPHIMURIUM, Strain/Indicator: TA97, Metabolic Activation: NONE, Method: STANDARD PLATE); “active; positive” (Test System: AMES SALMONELLA TYPHIMURIUM, Strain/Indicator: TA97, Metabolic Activation: RAT, LIVER, S-9, PHENOBARBITONE, Method: STANDARD PLATE); “active; positive” (Test System: AMES SALMONELLA TYPHIMURIUM, Strain/Indicator: TA98); “inactive; negative” (Test System: AMES SALMONELLA TYPHIMURIUM, Strain/Indicator: TA98, Metabolic Activation: NONE); “inactive; negative” (Test System: AMES SALMONELLA TYPHIMURIUM, Strain/Indicator: TA98, Metabolic Activation: NONE, Method: MICROSUSPENSION); “inactive; negative” under setting [1]. The mutagenic call runs as follows: under setting [2], “inactive; negative”; (Test System: AMES SALMONELLA TYPHIMURIUM, Strain/Indicator: TA98, Metabolic Activation: RAT, LIVER, S-9, PHENOBARBITONE, Method: STANDARD PLATE) “inactive; negative”; (Test System: AMES SALMONELLA TYPHIMURIUM, Strain/Indicator: TA98, Metabolic Activation: S-9, Method: MICROSUSPENSION) “inactive; negative”; (Test System: AMES SALMONELLA TYPHIMURIUM, Strain/Indicator: TA100) “active; positive”; (Test System: AMES SALMONELLA TYPHIMURIUM, Strain/Indicator: TA100, Metabolic Activation: NONE) “active; positive”; (Test System: AMES SALMONELLA TYPHIMURIUM, Strain/Indicator: TA100, Metabolic Activation: NONE, Method: MICROSUSPENSION) “inactive; negative”. In addition, the mutagenic call was “active; positive” under setting [3]; “active; positive” (Test System: AMES SALMONELLA TYPHIMURIUM, Strain/Indicator: TA100, Metabolic Activation: RAT, LIVER, S-9, PHENOBARBITONE, Method: STANDARD PLATE); “inactive; negative” (Test System: AMES SALMONELLA TYPHIMURIUM, Strain/Indicator: TA100, Metabolic Activation: S-9, Method: MICROSUSPENSION); “active; positive” (Test System: AMES SALMONELLA TYPHIMURIUM, Strain/Indicator: TA100, Metabolic Activation: S-9 MIX, Method: STANDARD PLATE); “inactive; negative” (Test System: AMES SALMONELLA TYPHIMURIUM, Strain/Indicator: TA104, Metabolic Activation: NONE, Method: STANDARD PLATE); “active; positive” (Test System: AMES SALMONELLA TYPHIMURIUM, Strain/Indicator: TA104, Metabolic Activation: RAT, LIVER, S-9, PHENOBARBITONE, Method: STANDARD PLATE). Further, the mutagenic call was “inactive; negative” under setting [4]; “inactive; negative” under setting [5]; “inactive; negative” under setting [6]; “inactive; negative” under setting [7]; “inactive; negative” (Test System: E. COLI, Strain/Indicator: WP2, Metabolic Activation: NONE, Method: STANDARD PLATE); “inactive; negative” (Test System: E. COLI, Strain/Indicator: WP2, Metabolic Activation: RAT, LIVER, S-9, AROCLOR 1254, Method: STANDARD PLATE).
As to `C/C=C1\C[C@@H](C)[C@](C)(OC(C)=O)C(=O)OC/C2=C/CN(C)CC[C@@H](OC1=O)C2=O`, the mutagenic call was “inactive; negative; by authors criteria results are positive” (Test System: AMES SALMONELLA TYPHIMURIUM, Strain/Indicator: TA100, Metabolic Activation: HAMSTER, LIVER, S-9, PCB, Method: PREINCUBATION); “active; positive” (Test System: AMES SALMONELLA TYPHIMURIUM, Strain/Indicator: TA100, Metabolic Activation: RAT, LIVER, S-9, PCB, Method: PREINCUBATION); “active; positive” (Test System: UDS RAT HEPATOCYTES, Strain/Indicator: THY INCORP, Metabolic Activation: NONE, Method: AUTORADIOGRAPHY).
On to `Cc1ccc(C)c(C)c1`, for which the mutagenic call was “inactive; negative” (Test System: AMES SALMONELLA TYPHIMURIUM, Strain/Indicator: TA97A, Metabolic Activation: NONE, Method: STANDARD PLATE); “inactive; negative” (Test System: AMES SALMONELLA TYPHIMURIUM, Strain/Indicator: TA97A, Metabolic Activation: RAT, LIVER, S-9, AROCLOR 1254, Method: STANDARD PLATE); “inactive; negative” under setting [1]; “inactive; negative” under setting [2]; “inactive; negative” under setting [8]; “inactive; negative” under setting [3]. The mutagenic call by setting is: (Test System: AMES SALMONELLA TYPHIMURIUM, Strain/Indicator: TA102, Metabolic Activation: NONE, Method: STANDARD PLATE) “inactive; negative”; (Test System: AMES SALMONELLA TYPHIMURIUM, Strain/Indicator: TA102, Metabolic Activation: RAT, LIVER, S-9, AROCLOR 1254, Method: STANDARD PLATE) “inactive; negative”.
As to `O=S(=O)(O)c1ccc2cc(O)c(S(=O)(=O)O)cc2c1`, the mutagenic call under setting [9] is “inactive; negative”; the mutagenic call (Test System: AMES SALMONELLA TYPHIMURIUM, Strain/Indicator: TA98, Metabolic Activation: RAT, LIVER, S-9, PHENOBARBITAL, Method: PREINCUBATION) was “inactive; negative”; the mutagenic call under setting [10] was “inactive; negative”; the mutagenic call (Test System: AMES SALMONELLA TYPHIMURIUM, Strain/Indicator: TA100, Metabolic Activation: RAT, LIVER, S-9, PHENOBARBITAL, Method: PREINCUBATION) is “inactive; negative”.
Turning to `O=C1CCC(=O)N1O`, the mutagenic call under setting [1] is “inactive; negative”; the mutagenic call under setting [2] was “inactive; negative”; the mutagenic call under setting [8] was “inactive; negative”; the mutagenic call under setting [3] is “inactive; negative”; the mutagenic call under setting [4] is “inactive; negative”; the mutagenic call under setting [5] is “inactive; negative”. In addition, the mutagenic call is “inactive; negative” under setting [6] and “inactive; negative” under setting [7].
As for `O=C1C(=O)c2c(ccc3ccccc23)-c2ccccc21`, the mutagenic call by setting is: under setting [1], “inactive; negative”; under setting [3], “inactive; negative”.
With `OC[C@H](Cc1cccc(O)c1)[C@H](CO)Cc1cccc(O)c1`, the mutagenic call (Test System: CHINESE HAMSTER V79 CELLS, Strain/Indicator: V79 CELLS (HPRT)/6-THIOGUANINE, Metabolic Activation: NONE, Method: SUSPENSION/PLATE) is “inactive; negative” and the mutagenic call (Test System: CHINESE HAMSTER V-79, Strain/Indicator: V-79 (HPRT)/6-THIOGUANINE, Metabolic Activation: NONE) was “inactive; negative”.
In the case of `Cc1ccccc1N=Nc1c(O)ccc2ccccc12`, the mutagenic call (Test System: AMES SALMONELLA TYPHIMURIUM, Strain/Indicator: TA98, Metabolic Activation: HAMSTER, LIVER, S-9, AROCLOR 1254 (30%), Method: PREINCUBATION) is “inactive; negative”; the mutagenic call under setting [9] is “inactive; negative”; the mutagenic call (Test System: AMES SALMONELLA TYPHIMURIUM, Strain/Indicator: TA98, Metabolic Activation: RAT, LIVER, S-9, AROCLOR 1254 (30%), Method: PREINCUBATION) was “inactive; negative”; the mutagenic call (Test System: AMES SALMONELLA TYPHIMURIUM, Strain/Indicator: TA100, Metabolic Activation: HAMSTER, LIVER, S-9, AROCLOR 1254 (30%), Method: PREINCUBATION) is “active; positive”; the mutagenic call under setting [10] is “inactive; negative”; the mutagenic call (Test System: AMES SALMONELLA TYPHIMURIUM, Strain/Indicator: TA100, Metabolic Activation: RAT, LIVER, S-9, AROCLOR 1254 (30%), Method: PREINCUBATION) was “inactive; negative”.
In the case of `O=c1c(Cl)c(Cl)cnn1S(=O)(=O)c1ccc(Cl)cc1Cl`, the mutagenic call reads like this: under setting [1], “inactive; negative”; under setting [2], “inactive; negative”; under setting [8], “inactive; negative”; under setting [3], “inactive; negative”; under setting [4], “inactive; negative”; under setting [5], “inactive; negative”. Also, the mutagenic call was “inactive; negative” under setting [6] and “inactive; negative” under setting [7].
Turning to `O=C(Nc1ccccc1Br)c1csc([N+](=O)[O-])c1`, the mutagenic call by setting is: under setting [1], “active; positive”; under setting [8], “active; positive”.
